Reference: PMC7596714, “Acute EPA-induced learning and memory impairment in mice is prevented by DHA” (Nature Communications, 2020)

Target: T1, 5-HT6R (5-hydroxytryptamine6 receptor, serotonin 6 receptor) (Homo sapiens, UniProt P50406)
T1 construct: gene HTR6
Test: radioligand competition with [3H]-LSD; supported by cAMP accumulation in […] cells with human 5-HT6R plasmid
Type: binding

T1 sequence (P50406 whole entry): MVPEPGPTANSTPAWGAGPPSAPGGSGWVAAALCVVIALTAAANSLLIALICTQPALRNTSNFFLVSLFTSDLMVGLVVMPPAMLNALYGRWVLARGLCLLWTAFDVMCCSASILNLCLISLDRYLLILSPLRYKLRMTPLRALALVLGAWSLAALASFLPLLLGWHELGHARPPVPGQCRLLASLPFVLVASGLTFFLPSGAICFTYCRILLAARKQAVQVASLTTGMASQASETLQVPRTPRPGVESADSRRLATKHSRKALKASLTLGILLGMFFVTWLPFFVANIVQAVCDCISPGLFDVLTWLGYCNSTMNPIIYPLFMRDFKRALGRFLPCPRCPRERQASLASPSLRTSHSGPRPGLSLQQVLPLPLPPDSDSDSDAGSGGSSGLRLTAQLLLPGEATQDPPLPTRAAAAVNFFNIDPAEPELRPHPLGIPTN

IC50: 26.6 µM
Structure (SMILES): CC/C=C\C/C=C\C/C=C\C/C=C\C/C=C\CCCC(=O)O [EPA, Eicosapentaenoic acid]
